In ChEMBL document CHEMBL2074206, “Uraemic toxins induce proximal tubular injury via organic anion transporter 1-mediated uptake” (Br J Pharmacol, 2002):
pIC50: −log10 of the molar value.

Target: T1, Solute carrier family 22 member 6 (Homo sapiens, UniProt Q4U2R8)
T1 sequence (Q4U2R8 whole entry): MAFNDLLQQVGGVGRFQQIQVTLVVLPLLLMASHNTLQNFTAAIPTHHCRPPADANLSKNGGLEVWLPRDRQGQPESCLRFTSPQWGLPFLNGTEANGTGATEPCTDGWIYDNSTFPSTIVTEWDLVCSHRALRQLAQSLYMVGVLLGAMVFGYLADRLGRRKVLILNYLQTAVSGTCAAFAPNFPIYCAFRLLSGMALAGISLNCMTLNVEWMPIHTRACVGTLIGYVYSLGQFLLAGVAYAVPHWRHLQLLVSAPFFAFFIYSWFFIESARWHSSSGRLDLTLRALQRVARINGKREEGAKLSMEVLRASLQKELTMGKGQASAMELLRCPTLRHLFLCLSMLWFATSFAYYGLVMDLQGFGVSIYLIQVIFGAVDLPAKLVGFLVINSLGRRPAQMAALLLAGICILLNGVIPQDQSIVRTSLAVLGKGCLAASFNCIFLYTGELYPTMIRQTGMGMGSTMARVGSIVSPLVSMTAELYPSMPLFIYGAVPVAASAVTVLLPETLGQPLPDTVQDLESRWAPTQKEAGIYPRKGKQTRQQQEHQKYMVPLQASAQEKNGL
Assay: TP_TRANSPORTER: inhibition of PAH uptake in OAT1-expressing OK cells
Format: functional, cell-based

O=C(O)CNC(=O)c1ccc(O)cc1
pIC50: 4.60
